From US12012415B2, “Compositions and methods for the diagnosis, treatment and prevention of neoplastic and neurological disorders” (AscentGene, Inc., priority 2018, dated 2024)

Legend:
T98G cells = experiment: Cell viability in TMZ-resistant T98G cells; type: cell-based; settings: TMZ plus AG-1601
Method: Cells were treated with indicated content of AG-1601 for 48 hours, then followed by performance of cell viability assays. Efficacy of AG-1601 in rat cell (see FIGS. 24A and B), of AG-1601 in human glioma cell see FIGS. 25A and 25B), different batches of AG-1601 in C6 and U251 cells (see FIGS. 26A and 26B), of AG-1601 in C6 and U87 cells (see FIGS. 27A and 27B), of AG-1601, TMZ, and Carmustine in U251 cells (see FIGS. 28A and 28B), and of AG-1601, TMZ, and Carmustine in U87 cells (see FIGS. 29A and 29B). […] Cell viability was determined in T98G cell and U251 cell after treatment with DMSO, TMZ, AG-1601 and TMZ plus AG-1601 (FIG. 30).

[1] = test system: Aβ1-42-induced cognitive impairments; experiment: Novel-object recognition (NOR) test in Aβ1-42 AD rat model; type: in vivo, rats
Method: Aβ1-42 (Sigma-Aldrich, St. Louis, MO, USA;) was dissolved in double-distilled water at the concentration of 5 μg/μl, and incubated at 37° C. for one week before surgery. The rats were randomly divided into four groups as Sham (n=8), Sham+AG-1601 (n=8), Aβ1-42 (n=8) and Aβ1-42+AG-1601 (n=8). The Alzheimer's disease rat models were established by intracerebroventricular (i.c.v.) injection of Aβ1-42 aggregates. The animals were anesthetized with intraperitoneal injection of pentobarbital sodium (50 mg/kg) and placed in a stereotaxic apparatus (Narishige, Japan). The head skin of the rat was opened and two small holes were drilled on both sides of skull following the coordinates: 0.8 mm posterior to bregma, +1.4 mm lateral to sagittal suture, 4.0 mm beneath the surface of brain. Aβ1-42 (2.0 μl per side) was injected bilaterally into the lateral ventricles through micro-syringe. The needle was taken out after 5 minutes of the injection to ensure the aggregates were infused completely. […] The short- and long-term memory functions of the animals were evaluated by using the NOR test, which were carried out after the open field test. […] A recognition index was calculated by the percentage of TB/(TA+TB) (TA: time spent exploring the familiar object A; TB: time spent exploring the novel object B). […]

[2] = test system: Rat glioblastoma cell lines C6; experiment: Cell growth of glioblastoma cell line C6; type: cell-based; settings: cell growth rate from number of live cells
Method: (§1) Rat glioblastoma cell lines C6 (A) and human non-small cell lung cancer cell line H841 (B) were grown in the proper medium and treated with different concentration of drug candidate AG-1031 (P) and AG-1503 (#3). Cell growth rate was calculated based on the number of live cells as compared to concentration in M of selected small molecules of the invention (see FIGS. 6A and 6B).

[3] = test system: human non-small cell lung cancer cell line H841; experiment: Cell growth of NSCLC cell lines; type: cell-based; settings: cell growth rate from number of live cells
Method: as §1

SMILES: C=CC1=C(C)c2cc3[nH]c(cc4nc(cc5[nH]c(cc1n2)c(C)c5C=C)C(C)=C4CCC(=O)O)c(CCC(=O)NCCCc1ccccc1)c3C [AG-1601, 3-(2,8,13,18-tetramethyl-3-(3-oxo-3-((3-phenylpropyl)amino)propyl)-12,17-divinylporphyrin-7-yl)propanoic acid]
- effect on TMZ-resistance (T98G cells): Overcomes the Effect of TMZ-resistance
- recognition index, short-term memory test ([1]; 1 h after training, vs Aβ1-42 group): significant increase in recognition index
- cognitive impairments in NOR test ([1]; Aβ42 induced AD rat model): significantly reversed cognitive impairments
- inhibition of growth of glioma cell line C6 [2]: even better inhibitory activity on growth of glioma cells compared to AG-1503
- inhibition of growth of NSCLC cell lines [3]: inhibiting growth of some NSCLC cell lines
